According to patent US20080274892A1, “Novel Haloalkylsulfonanilide Derivative, Herbicide, and Method of Use Thereof” (priority 2005, published 2008):

Columns and labels:
bulrush [1] = assay: Test Example 1: herbicidal efficacy on rice paddy weeds pre-emergence; type: in vivo, Scirpus juncoides; conditions: 21 days
Method: (§1) A 75 cm^2 plastic pot was filled with soil (clay loam) and planted seeds of bulrush which is a rice paddy weed. After covering the top with 75 cm^3 soil mixed with seeds of false pimpernel, the pot was filled with water so that the soil submerged under 5 cm depth of water. The predetermined effective dosage ([…]) of a formulation containing the compound of the present invention prepared according to Formulation Example 1-4 as an active ingredient was diluted in water and added to the pot water surface dropwise. The pot was kept in a hot house for 21 days and the herbicidal efficacy was investigated. The herbicidal efficacy was evaluated according to the following standard by comparing with untreated control. “-” in the table represents test not done.
(§2) The standard of judgment for herbicidal efficacy (degree of growth inhibition) and phytotoxicity 4 . . . 90%-100% of herbicidal efficacy or phytotoxicity 3 . . . 70%-89% of herbicidal efficacy or phytotoxicity 2 . . . 40%-69% of herbicidal efficacy or phytotoxicity 1 . . . 1%-39% of herbicidal efficacy or phytotoxicity 0 . . . 0% of herbicidal efficacy or phytotoxicity

false pimpernel [2] = assay: as above; type: in vivo, Lindernia pyxidaria; conditions: 21 days
Method: as §1, §2

barnyard glass = assay: Test Example 2: herbicidal efficacy on rice paddy weeds post-emergence; type: in vivo, Echinochloa crus-galli; conditions: 21 days after treatment
Excerpt: as §2
(§3) A 75 cm^2 plastic pot was filled with soil (clay loam) and planted seeds of barnyard glass and bulrush which is a rice paddy weed. After covering the top with 75 cm^3 soil mixed with seeds of false pimpernel, the pot was filled with water so that the soil submerged under 5 cm depth of water and kept in a hot house. […] The pot was kept in a hot house for 21 days after the treatment and the herbicidal efficacy was investigated and evaluated according to the standard in Test Example 1 by comparing with the untreated control. “-” in the table represents test not done.

bulrush [3] = assay: as above; type: in vivo, Scirpus juncoides; conditions: 21 days after treatment
Excerpt: as §2, §3

false pimpernel [4] = assay: as above; type: in vivo, Lindernia pyxidaria; conditions: 21 days after treatment
Excerpt: as §2, §3

[5] = system: paddy rice plant (cultivar: Nihonbare); assay: Test Example 3: phytotoxicity test for transplanted paddy rice plant; type: in vivo; conditions: 21 days after treatment; for Phytotoxicity to paddy rice: transplanted rice; for Phytotoxicity to paddy rice (grade): dosage 1000 g/ha active ingredient, vs untreated control
Method: as §2
A 75 cm^2 plastic pot was filled with soil (clay loam), and water was added so that the soil was submerged under 5 cm depth of water. Two paddy rice plant (cultivar: Nihonbare) at two leaves stage were transplanted at the depth of 1 cm and kept in a hot house. […] The pot was kept in a hot house for 21 days after the treatment and the phytotoxicity was investigated and evaluated according to the standard in Test Example 1 by comparing with the untreated control. “-” in the table represents test not done.

[6] = dosage 300 g/ha, post-emergence, one leaf stage
[7] = dosage 1000 g/ha, post-emergence, one leaf stage
[8] = dosage 1000 g/ha, treated 5 days after transplantation
[9] = dosage 1000 g/ha active ingredient, vs untreated control
[10] = dosage 1000 g/ha active ingredient, post-emergence treatment at one leaf stage, vs untreated control
[11] = treated 5 days after transplantation

Compound | Bulrush pre (herbicidal efficacy grade) (bulrush [1]; dosage 300 g/ha) | False pimpernel pre (herbicidal efficacy grade) (false pimpernel [2]; dosage 300 g/ha) | Burnyard grass post (herbicidal efficacy grade) (barnyard glass; [6]) | Bulrush post (herbicidal efficacy grade) (bulrush [3]; [6]) | False pimpernel post (herbicidal efficacy grade) (false pimpernel [4]; [6]) | Phytotoxicity to paddy rice ([5]; dosage 300 g/ha) | other results
CC(C)(C)OC(=O)NCC1CN(Cc2ccccc2NS(=O)(=O)C(F)(F)F)C(=O)O1 (racemic) [1-106] | 4 (90%-100% of herbicidal efficacy or phytotoxicity) | 2 (40%-69% of herbicidal efficacy or phytotoxicity) | 0 (0% of herbicidal efficacy or phytotoxicity) | 4 (90%-100% of herbicidal efficacy or phytotoxicity) | 2 (40%-69% of herbicidal efficacy or phytotoxicity) | 0 (0% of herbicidal efficacy or phytotoxicity) | 
O=C1OC(COc2ccccc2)CN1Cc1ccccc1NS(=O)(=O)C(F)(F)F (racemic) [Compound 1-51] | 3 (70%-89% of herbicidal efficacy or phytotoxicity) | 4 (90%-100% of herbicidal efficacy or phytotoxicity) | 0 (0% of herbicidal efficacy or phytotoxicity) | 4 (90%-100% of herbicidal efficacy or phytotoxicity) | 3 (70%-89% of herbicidal efficacy or phytotoxicity) | 0 (0% of herbicidal efficacy or phytotoxicity) | 
CC(C)COC(=O)N(c1ccccc1CN1CC(COc2ccccc2)OC1=O)S(=O)(=O)C(F)(F)F (racemic) [Compound 1-52] | 4 (90%-100% of herbicidal efficacy or phytotoxicity) | 4 (90%-100% of herbicidal efficacy or phytotoxicity) | 3 (70%-89% of herbicidal efficacy or phytotoxicity) | 4 (90%-100% of herbicidal efficacy or phytotoxicity) | 4 (90%-100% of herbicidal efficacy or phytotoxicity) | 0 (0% of herbicidal efficacy or phytotoxicity) | 
CC(C)CC1(C)CN(Cc2ccccc2NS(=O)(=O)C(F)(F)F)C(=O)O1 (racemic) [Compound 1-103] | 4 (90%-100% of herbicidal efficacy or phytotoxicity) | 4 (90%-100% of herbicidal efficacy or phytotoxicity) | 4 (90%-100% of herbicidal efficacy or phytotoxicity) | 4 (90%-100% of herbicidal efficacy or phytotoxicity) | 4 (90%-100% of herbicidal efficacy or phytotoxicity) | 2 (40%-69% of herbicidal efficacy or phytotoxicity) | 
CC(C)COC(=O)N(c1ccccc1CN1CC(C)(CC(C)C)OC1=O)S(=O)(=O)C(F)(F)F (racemic) [Compound 1-104] |  |  |  |  |  |  | Bulrush pre (herbicidal efficacy grade) (bulrush [1]; dosage 1000 g/ha): 4 (90%-100% of herbicidal efficacy or phytotoxicity); False pimpernel pre (herbicidal efficacy grade) (false pimpernel [2]; dosage 1000 g/ha): 4 (90%-100% of herbicidal efficacy or phytotoxicity); Burnyard grass post (herbicidal efficacy grade) (barnyard glass; [7]): 4 (90%-100% of herbicidal efficacy or phytotoxicity); Bulrush post (herbicidal efficacy grade) (bulrush [3]; [7]): 4 (90%-100% of herbicidal efficacy or phytotoxicity); False pimpernel post (herbicidal efficacy grade) (false pimpernel [4]; [7]): 4 (90%-100% of herbicidal efficacy or phytotoxicity); Phytotoxicity to paddy rice [5, 8]: 2 (40%-69% of herbicidal efficacy or phytotoxicity)
CC(C)COC(=O)N(c1ccccc1CN1CC(CNC(=O)OC(C)(C)C)OC1=O)S(=O)(=O)C(F)(F)F (racemic) [Compound 1-107] | 4 (90%-100% of herbicidal efficacy or phytotoxicity) | 4 (90%-100% of herbicidal efficacy or phytotoxicity) | 3 (70%-89% of herbicidal efficacy or phytotoxicity) | 4 (90%-100% of herbicidal efficacy or phytotoxicity) | 1 (1%-39% of herbicidal efficacy or phytotoxicity) | 0 (0% of herbicidal efficacy or phytotoxicity) | 
CCCCC1(C)CN(Cc2ccccc2NS(=O)(=O)C(F)(F)F)C(=O)O1 (racemic) [Compound 1-121] | 4 (90%-100% of herbicidal efficacy or phytotoxicity) | 4 (90%-100% of herbicidal efficacy or phytotoxicity) | 1 (1%-39% of herbicidal efficacy or phytotoxicity) | 4 (90%-100% of herbicidal efficacy or phytotoxicity) | 4 (90%-100% of herbicidal efficacy or phytotoxicity) | 1 (1%-39% of herbicidal efficacy or phytotoxicity) | 
CCCCC1(C)CN(Cc2ccccc2N(C(=O)OCC(C)C)S(=O)(=O)C(F)(F)F)C(=O)O1 (racemic) [Compound 1-123] |  |  |  |  |  |  | Bulrush pre (herbicidal efficacy grade) (bulrush [1]; dosage 1000 g/ha): 4 (90%-100% of herbicidal efficacy or phytotoxicity); False pimpernel pre (herbicidal efficacy grade) (false pimpernel [2]; dosage 1000 g/ha): 4 (90%-100% of herbicidal efficacy or phytotoxicity); Burnyard grass post (herbicidal efficacy grade) (barnyard glass; [7]): 4 (90%-100% of herbicidal efficacy or phytotoxicity); Bulrush post (herbicidal efficacy grade) (bulrush [3]; [7]): 4 (90%-100% of herbicidal efficacy or phytotoxicity); False pimpernel post (herbicidal efficacy grade) (false pimpernel [4]; [7]): 4 (90%-100% of herbicidal efficacy or phytotoxicity); Phytotoxicity to paddy rice [5, 8]: 1 (1%-39% of herbicidal efficacy or phytotoxicity)
CC1(C)OC(=O)N(Cc2cc(Cl)ccc2NS(=O)(=O)C(F)(F)F)C1=O [1-211] |  |  |  |  |  |  | Bulrush pre (herbicidal efficacy grade) (bulrush [1]; dosage 1000 g/ha): 4 (90%-100% of herbicidal efficacy or phytotoxicity); Burnyard grass post (herbicidal efficacy grade) (barnyard glass; [7]): 4 (90%-100% of herbicidal efficacy or phytotoxicity); Bulrush post (herbicidal efficacy grade) (bulrush [3]; [7]): 4 (90%-100% of herbicidal efficacy or phytotoxicity); Phytotoxicity to paddy rice [5, 8]: 4 (90%-100% of herbicidal efficacy or phytotoxicity)
COCOc1cccc(CN2CC(C)(C)OC2=O)c1NS(=O)(=O)C(F)(F)F [1-212] |  |  |  |  |  |  | Bulrush pre (herbicidal efficacy grade) (bulrush [1]; [9]): 4 (90%-100% of herbicidal efficacy or phytotoxicity); False pimpernel pre (herbicidal efficacy grade) (false pimpernel [2]; [9]): 1 (1%-39% of herbicidal efficacy or phytotoxicity); Burnyard grass post (herbicidal efficacy grade) (barnyard glass; [10]): 3 (70%-89% of herbicidal efficacy or phytotoxicity); Bulrush post (herbicidal efficacy grade) (bulrush [3]; [10]): 2 (40%-69% of herbicidal efficacy or phytotoxicity); False pimpernel post (herbicidal efficacy grade) (false pimpernel [4]; [10]): 2 (40%-69% of herbicidal efficacy or phytotoxicity); Phytotoxicity to paddy rice (grade) [5, 11]: 3 (70%-89% of herbicidal efficacy or phytotoxicity)
CC1(C)CN(Cc2cccc(O)c2NS(=O)(=O)C(F)(F)F)C(=O)O1 [1-214] |  |  |  |  |  |  | Bulrush pre (herbicidal efficacy grade) (bulrush [1]; [9]): 1 (1%-39% of herbicidal efficacy or phytotoxicity); Burnyard grass post (herbicidal efficacy grade) (barnyard glass; [10]): 0 (0% of herbicidal efficacy or phytotoxicity); Bulrush post (herbicidal efficacy grade) (bulrush [3]; [10]): 1 (1%-39% of herbicidal efficacy or phytotoxicity); Phytotoxicity to paddy rice (grade) [5, 11]: 0 (0% of herbicidal efficacy or phytotoxicity)
CC1(C)CN(Cc2cc3c(cc2NS(=O)(=O)C(F)(F)F)OCO3)C(=O)O1 [1-215] |  |  |  |  |  |  | Bulrush pre (herbicidal efficacy grade) (bulrush [1]; [9]): 2 (40%-69% of herbicidal efficacy or phytotoxicity); False pimpernel pre (herbicidal efficacy grade) (false pimpernel [2]; [9]): 4 (90%-100% of herbicidal efficacy or phytotoxicity); Burnyard grass post (herbicidal efficacy grade) (barnyard glass; [10]): 1 (1%-39% of herbicidal efficacy or phytotoxicity); Bulrush post (herbicidal efficacy grade) (bulrush [3]; [10]): 2 (40%-69% of herbicidal efficacy or phytotoxicity); False pimpernel post (herbicidal efficacy grade) (false pimpernel [4]; [10]): 3 (70%-89% of herbicidal efficacy or phytotoxicity); Phytotoxicity to paddy rice (grade) [5, 11]: 0 (0% of herbicidal efficacy or phytotoxicity)
CCc1cn(Cc2ccccc2NS(=O)(=O)C(F)(F)F)c(=O)o1 [Compound 1-209] | 3 (70%-89% of herbicidal efficacy or phytotoxicity) | 4 (90%-100% of herbicidal efficacy or phytotoxicity) |  | 3 (70%-89% of herbicidal efficacy or phytotoxicity) | 2 (40%-69% of herbicidal efficacy or phytotoxicity) | 1 (1%-39% of herbicidal efficacy or phytotoxicity) | 
CCc1cn(Cc2ccccc2N(C(=O)OCC(C)C)S(=O)(=O)C(F)(F)F)c(=O)o1 [Compound 1-210] | 3 (70%-89% of herbicidal efficacy or phytotoxicity) | 4 (90%-100% of herbicidal efficacy or phytotoxicity) |  | 4 (90%-100% of herbicidal efficacy or phytotoxicity) | 0 (0% of herbicidal efficacy or phytotoxicity) | 0 (0% of herbicidal efficacy or phytotoxicity) | 
